Measured values as given in patent publication US20140271822A1, “MODIFIED DOCETAXEL LIPOSOME FORMULATIONS” (Mallinckrodt LLC, priority 2013, published 2014).
“Also recorded” adds a separate entry of the source.

Experiments:
[1] = tested on: HT1080/PTK7 human fibrosarcoma tumor xenografts; test: Antitumor activity, HT1080/PTK7 fibrosarcoma xenograft; format: in vivo, athymic nude mice
Description: (§1) The studies were of broadly similar design. Tumor cell lines were implanted subcutaneously into the flank of nude (immunodeficient) mice and allowed to grow to a fixed size. […] In each case, where possible, doses were selected as providing equivalent levels of toxicity/tolerance. […] Tumor volume was analyzed to determine tumor growth delay (TGD) and partial regression. Mice were removed from the study if they lost 20% of their initial bodyweight or became moribund or if their tumor volume exceeded 2500 mm^3 or the tumor ulcerated. If less than half of the initial cohort of mice remained, that group was no longer graphed or included in further tumor analysis. However, any remaining animals were followed until completion of the in-life observation period and included in a survival analysis.

[2] = Tissue distribution in mice with A549 xenografts; details: for Kidney AUC / Liver AUC / Spleen AUC / Tumor AUC: docetaxel in tissue
Description: (§2) The plasma pharmacokinetics and distribution were studied in female athymic nude mice each implanted subcutaneously with A549 cells (human non-small cell lung cancer). Once tumors reached a volume of 100-300 mm^3, animals were randomized into 4 groups.
Three animals were sacrificed at 1, 4, 24, 72 (3 days), 168 (7 days), 216 (9 days), 336 (14 days), 432 (18 days) and 504 hours (21 days) post injection. Blood samples were taken for pharmacokinetic analysis at each time point.

[3] = tested on: human PC3 (prostate) tumor xenografts; test: Antitumor activity, PC3 prostate xenograft; format: in vivo, athymic nude mice; details: docetaxel 18 and 27 mg/kg
Description: as §1

[4] = tested on: A549 human NSCLC tumor xenografts; test: Antitumor activity, A549 NSCLC xenograft, two doses 21 days apart; details: for Median Survival / Partial Tumor Regression (%) / TGD / TGD (%): two doses 21 days apart
Description: The studies were of broadly similar design. Tumor cell lines were implanted subcutaneously into the flank of nude (immunodeficient) mice and allowed to grow to a fixed size. […] In each case, where possible, doses were selected as providing equivalent levels of toxicity/tolerance. The highest doses of TD-1 were usually limited by the volume that could be administered. Tumor volume was analyzed to determine tumor growth delay (TGD) and partial regression. Mice were removed from the study if they lost 20% of their initial bodyweight or became moribund or if their tumor volume exceeded 2500 mm^3 or the tumor ulcerated. If less than half of the initial cohort of mice remained, that group was no longer graphed or included in further tumor analysis. However, any remaining animals were followed until completion of the in-life observation period and included in a survival analysis.

[5] = tested on: human A549 NSCLC tumor xenografts; test: Antitumor activity, A549 NSCLC xenograft, single dose; format: in vivo, athymic nude mice
Description: as §1

in vivo [6] = details: male, athymic nude, mouse, plasma, iv, 19 mg/kg
Description: (§3) The plasma pharmacokinetics and distribution were studied in male athymic nude mice each implanted subcutaneously with PC3 cells (human prostate cancer). Once tumors reached a volume of 100-300 mm^3, animals were randomized into 5 groups.
(§4) Three animals were sacrificed at 5 minutes and 1, 4, 24, 48, 72, 120 and 168 hours post injection. Blood samples were taken for pharmacokinetic analysis at each time. Pharmacokinetic parameters of TD-1 and docetaxel were calculated using the Phoenix WinNonLin software by non-compartment analysis modeling.

in vivo [7] = details: female, athymic nude, mouse, iv
Description: as §2
(§5) Three animals were sacrificed at 1, 4, 24, 72 (3 days), 168 (7 days), 216 (9 days), 336 (14 days), 432 (18 days) and 504 hours (21 days) post injection. Blood samples were taken for pharmacokinetic analysis at each time point. Pharmacokinetic parameters of TD-1 and docetaxel were calculated using the Phoenix WinNonLin software by non-compartment analysis modeling.

[8] = tested on: human A253 (Head & Neck) tumor xenografts; test: Antitumor activity, A253 head & neck xenograft; format: in vivo, athymic nude mice; details: for TGI (%): day 31 post treatment
Description: The studies were of broadly similar design.

[9] = Tissue distribution in mice with PC3 xenografts; details: docetaxel in tissue
Description: as §3, §4
In addition to the plasma levels and pharmacokinetic calculations described above, tissue distribution was also evaluated. Tissues harvested from each animal described in Table 5 and frozen before analysis included: tumor, liver, spleen, and kidney.

[10] = tested on: A431 human epidermoid tumor xenografts; test: Antitumor activity, A431 epidermoid xenograft; format: in vivo, athymic nude mice
Description: as §1

[11] = mouse, in vivo
Description: as §2, §5

[12] = tested on: MDA-MB-435/PTK7 (human breast) tumor xenografts; test: Antitumor activity, MDA-MB-435/PTK7 breast xenograft; format: in vivo, athymic nude mice
Description: as §1

[13] = Plasma pharmacokinetics in nude mice bearing PC3 xenografts; details: single iv; for plasma docetaxel concentrations falling below the levels of detection after: free drugs
Description: as §3, §4

[14] = 30 mg/kg (docetaxel equivalent) single iv
[15] = dose 19 mg/kg (docetaxel equivalent)
[16] = docetaxel in plasma, dose 19 mg/kg (docetaxel equivalent)
[17] = TD-1 in plasma, dose 11 mg/kg (docetaxel equivalent)
[18] = docetaxel in plasma, dose 11 mg/kg (docetaxel equivalent)

SMILES: CC(=O)O[C@@]12CO[C@@H]1C[C@H](O)[C@@]1(C)C(=O)[C@H](O)C3=C(C)[C@@H](OC(=O)[C@H](O)[C@@H](NC(=O)OC(C)(C)C)c4ccccc4)C[C@@](O)([C@@H](OC(=O)c4ccccc4)[C@H]21)C3(C)C [Docetaxel, docetaxel]
- Median Survival ([1]; 9 mg/kg single iv): 11.5 days
- Partial Tumor Regression (%) ([1]; 9 mg/kg single iv): 0%
- TGI (%) ([1]; 9 mg/kg single iv): 52%
- Median Survival ([1]; 18 mg/kg single iv): 23 days
- Partial Tumor Regression (%) ([1]; 18 mg/kg single iv): 10%
- TGD ([1]; 18 mg/kg single iv): 7
- TGD (%) ([1]; 18 mg/kg single iv): 70%
- TGI (%) ([1]; 18 mg/kg single iv): 31%
- Median Survival ([1]; 27 mg/kg single iv): 30 days
- Partial Tumor Regression (%) ([1]; 27 mg/kg single iv): 70%
- TGD ([1]; 27 mg/kg single iv): 16
- TGD (%) ([1]; 27 mg/kg single iv): 160%
- TGI (%) ([1]; 27 mg/kg single iv): 89%
- survival ([1]; docetaxel): did not significantly increase survival
- tumor growth compared to saline ([1]; docetaxel 27 mg/kg, day 14): inhibited tumor growth; also recorded: significantly smaller tumors than saline
- tumor retained measurable levels of docetaxel through ([2]; docetaxel 50 mg/kg): 216 h
- tissue concentrations of docetaxel fell below the limits of quantitation after ([2]; docetaxel 50 mg/kg, most of the tissues except tumor): 24 h
- Kidney AUC ([2]; dose 30 mg/kg): 28 µg·h/g
- Liver AUC ([2]; dose 30 mg/kg): 10 µg·h/g
- Spleen AUC ([2]; dose 30 mg/kg): 77 µg·h/g
- Tumor AUC ([2]; dose 30 mg/kg): 276 µg·h/g
- Kidney AUC ([2]; dose 50 mg/kg): 179 µg·h/g
- Liver AUC ([2]; dose 50 mg/kg): 37 µg·h/g
- Spleen AUC ([2]; dose 50 mg/kg): 162 µg·h/g
- Tumor AUC ([2]; dose 50 mg/kg): 442 µg·h/g
- docetaxel in liver, spleen and kidney fell below the levels of detection within ([2]; free docetaxel, after injection): ≤ 24 h
- tumor docetaxel falling below the levels of quantitation (1.0 μg/g) after ([2]; intravenous injection of docetaxel): nine days
- tumor growth [3]: inhibited tumor growth
- survival compared to saline ([3]; p<0.05): increased survival significantly more than saline
- Median Survival ([4]; 18 mg/kg): 56 days
- Partial Tumor Regression (%) ([4]; 18 mg/kg): 0%
- TGD ([4]; 18 mg/kg): 19
- TGD (%) ([4]; 18 mg/kg): 66%
- Median Survival ([4]; 27 mg/kg): 100 days
- Partial Tumor Regression (%) ([4]; 27 mg/kg): 10%
- TGD ([4]; 27 mg/kg): 41
- TGD (%) ([4]; 27 mg/kg): 141%
- survival compared to saline ([4]; all dose levels, p<0.05): increased survival significantly compared to saline
- tumor growth compared to saline ([4]; docetaxel 18 and 27 mg/kg, days 0 and 21, day 37): inhibited tumor growth; also recorded: significantly smaller tumors than saline
- Median Survival ([5]; 10 mg/kg single iv): 96 days
- Partial Tumor Regression (%) ([5]; 10 mg/kg single iv): 0%
- TGI (%) ([5]; 10 mg/kg single iv): 0%
- Partial Tumor Regression (%) ([5]; 20 mg/kg single iv): 0%
- TGI (%) ([5]; 20 mg/kg single iv): 4%
- Partial Tumor Regression (%) [5, 14]: 10%
- TGI (%) [5, 14]: 38%
- effect on tumor volumes and survival ([5]; docetaxel 10, 20, 30 mg/kg): failed to reduce A549 tumor volumes significantly or extend survival
- AUC (in vivo [6]): 13000 ng·h/mL
- Cmax (in vivo [6]): 13000 ng/mL
- Vd (in vivo [6]): 16.1 L/kg
- clearance (in vivo [6]): 25 mL/min/kg
- half-life (in vivo [6]): 7.4 h
- AUC(0-inf) (in vivo [7]; 30 mg/kg): 8800 ng·h/mL
- Cmax (in vivo [7]; 30 mg/kg): 2700 ng/mL
- Vd (in vivo [7]; 30 mg/kg): 16.1 L/kg
- AUC(0-inf) (in vivo [7]; 50 mg/kg): 27000 ng·h/mL
- Cmax (in vivo [7]; 50 mg/kg): 8600 ng/mL
- Vd (in vivo [7]; 50 mg/kg): 37.2 L/kg
- Median Survival ([8]; 10 mg/kg single iv): 64 days
- TGD ([8]; 10 mg/kg single iv): 0 days
- TGD (%) ([8]; 10 mg/kg single iv): 0%
- TGI (%) ([8]; 10 mg/kg single iv): 0%
- Median Survival ([8]; 20 mg/kg single iv): 62 days
- TGD ([8]; 20 mg/kg single iv): 0 days
- TGD (%) ([8]; 20 mg/kg single iv): 0%
- TGI (%) ([8]; 20 mg/kg single iv): 0%
- Median Survival [8, 14]: 73 days
- TGD [8, 14]: 5 days
- TGD (%) [8, 14]: 9%
- TGI (%) [8, 14]: 12%
- effect on tumor volumes and survival ([8]; docetaxel 10, 20, 30 mg/kg): failed to reduce A253 tumor volumes significantly or extend survival
- Kidney AUC [9, 15]: 73 µg·h/g
- Liver AUC [9, 15]: 50 µg·h/g
- Spleen AUC [9, 15]: 94 µg·h/g
- Tumor AUC [9, 15]: 896 µg·h/g
- Median Survival ([10]; 20 mg/kg single iv): 17 days
- Partial Tumor Regression (%) ([10]; 20 mg/kg single iv): 63%
- TGD ([10]; 20 mg/kg single iv): 13
- TGD (%) ([10]; 20 mg/kg single iv): 1408%
- TGI (%) ([10]; 20 mg/kg single iv): 123%
- Median Survival ([10]; 30 mg/kg single iv): 9 days
- Partial Tumor Regression (%) ([10]; 30 mg/kg single iv): 50%
- TGI (%) ([10]; 30 mg/kg single iv): 120%
- tumor growth compared to saline ([10]; docetaxel 20 and 30 mg/kg, day 7): inhibited tumor growth; also recorded: significantly smaller tumors than saline
- plasma docetaxel detectable for [11]: only four hours
- Median Survival ([12]; 9 mg/kg single iv): 15 days
- Partial Tumor Regression (%) ([12]; 9 mg/kg single iv): 0%
- TGD ([12]; 9 mg/kg single iv): 1
- TGD (%) ([12]; 9 mg/kg single iv): 9%
- Median Survival ([12]; 18 mg/kg single iv): 28 days
- Partial Tumor Regression (%) ([12]; 18 mg/kg single iv): 13%
- TGD ([12]; 18 mg/kg single iv): 10
- TGD (%) ([12]; 18 mg/kg single iv): 91%
- TGI (%) ([12]; 18 mg/kg single iv): 26%
- Median Survival ([12]; 27 mg/kg single iv): 35 days
- Partial Tumor Regression (%) ([12]; 27 mg/kg single iv): 38%
- TGD ([12]; 27 mg/kg single iv): 18
- TGD (%) ([12]; 27 mg/kg single iv): 164%
- TGI (%) ([12]; 27 mg/kg single iv): 42%
- tumor growth ([12]; docetaxel 18 and 27 mg/kg): inhibited tumor growth
- AUC/Dose [13, 16]: 0.7
- Cmax/Dose [13, 16]: 0.7
- plasma docetaxel concentrations falling below the levels of detection after [13]: 48 h

SMILES: CC(=O)O[C@@]12CO[C@@H]1C[C@H](O)[C@@]1(C)C(=O)[C@H](O)C3=C(C)[C@@H](OC(=O)[C@H](OC(=O)CCCN4CCN(C)CC4)[C@@H](NC(=O)OC(C)(C)C)c4ccccc4)C[C@@](O)([C@@H](OC(=O)c4ccccc4)[C@H]21)C3(C)C [TD-1, 2′O-4-(4-methylpiperazin-1-yl)-butanoyl-docetaxel]
- Tumor AUC ([9]; dose 11 mg/kg (docetaxel equivalent)): 314 µg·h/g
- AUC [13, 17]: 5700 ng·h/mL
- AUC/Dose [13, 17]: 0.4
- CL [13, 17]: 39.77 mL/min/kg
- Cmax [13, 17]: 5000 ng/mL
- Cmax/Dose [13, 17]: 0.4
- Vz [13, 17]: 26.01 L/kg
- t1/2 [13, 17]: 7.6 h
- AUC [13, 18]: 4100 ng·h/mL
- AUC/Dose [13, 18]: 0.4
- CL [13, 18]: 43.18 mL/min/kg
- Cmax [13, 18]: 1400 ng/mL
- Cmax/Dose [13, 18]: 0.1
- Vz [13, 18]: 40.905 L/kg
- t1/2 [13, 18]: 11 h
- plasma docetaxel concentrations falling below the levels of detection after [13]: 48 h
